DBAASP
Converted amounts (≈) assume the structure as drawn. One block for each compound: values may come before it.

Experiments:
Experiment in all cases: ≥ marks a high value that may be exact or a test limit, other limits are often not marked, values filed in µg/mL are converted to µM
[1] = test system: Pseudomonas aeruginosa KCTC 1637
[2] = test system: Bacillus megaterium KCTC 1096
[3] = test system: Escherichia coli KCTC 1682
[4] = test system: Staphylococcus aureus KCTC 1621
[5] = test system: Bacillus subtilis KCTC 1918
Proteus vulgaris = test system: Proteus vulgaris
[6] = test system: Pseudomonas aeruginosa PAO1
[7] = test system: Staphylococcus aureus NCTC 10788
[8] = test system: Staphylococcus aureus USA 300
[9] = test system: Escherichia coli NCTC 10418
[10] = test system: Acinetobacter baumannii ATCC 17978
[11] = test system: Candida albicans NCPF 1467
[12] = test system: Klebsiella pneumoniae NCTC 13368
[13] = test system: Escherichia coli NCTC 12923
[14] = test system: Staphylococcus aureus ATCC 9144
[15] = test system: Bacillus subtilis ATCC 6633
[16] = test system: Staphylococcus epidermidis ATCC 12228
[17] = test system: Escherichia coli ATCC 25922
[18] = test system: Shigella dysenteriae ATCC 9752
[19] = test system: Klebsiella pneumoniae ATCC 10031
[20] = test system: Staphylococcus aureus ATCC 6538P
[21] = test system: Pseudomonas aeruginosa ATCC 27853
[22] = test system: Salmonella enterica subsp. enterica serovar Typhimurium ATCC 14028
[23] = test system: Micrococcus luteus ATCC 10240
[24] = test system: Batrachochytrium dendrobatidis JEL-197
[25] = test system: Staphylococcus aureus ATCC 25923
[26] = test system: Candida albicans ATCC 90028
[27] = test system: Escherichia coli ATCC 25726
[28] = test system: Escherichia coli IFO 12734
[29] = test system: Staphylococcus aureus IFO 12732
[30] = test system: Bacillus subtilis IFO 3513

MIC [1]: 1.56 µM (≈ 3.33 µg/mL)
MIC [2]: 0.78 µM (≈ 1.66 µg/mL)
MIC [3]: 6.26 µM (≈ 13.4 µg/mL)
MIC [4]: 3.12 µM (≈ 6.66 µg/mL)
MIC [5]: 0.78 µM (≈ 1.66 µg/mL)
MIC (Proteus vulgaris): 1.56 µM (≈ 3.33 µg/mL)
Compound: CC[C@H](C)[C@H](NC(=O)[C@H](CCCCN)NC(=O)[C@H](CCCCN)NC(=O)[C@H](Cc1ccccc1)NC(=O)[C@H](CC(C)C)NC(=O)[C@H](CCCCN)NC(=O)[C@@H](N)Cc1ccccc1)C(=O)N1CCC[C@H]1C(=O)N[C@@H](CCCCN)C(=O)N[C@@H](Cc1ccccc1)C(=O)N[C@@H](CC(C)C)C(=O)N[C@@H](Cc1cnc[nH]1)C(=O)N[C@@H](CC(C)C)C(=O)N[C@@H](C)C(=O)N[C@@H](CCCCN)C(=O)N[C@@H](CCCCN)C(=O)N[C@@H](Cc1ccccc1)C(N)=O [FKLFKKIPKFLHLAKKF]

Compound: CC[C@H](C)[C@H](NC(=O)[C@H](C)NC(=O)[C@H](CCCCN)NC(=O)[C@@H]1CCCN1C(=O)[C@@H](NC(=O)[C@H](CC(C)C)NC(=O)[C@H](CO)NC(=O)[C@H](Cc1ccccc1)NC(=O)[C@H](CC(C)C)NC(=O)[C@@H](N)Cc1ccccc1)[C@@H](C)CC)C(=O)NCC(=O)NCC(=O)N[C@@H](CC(C)C)C(=O)N[C@H](C(=O)N[C@@H](CO)C(=O)N[C@@H](C)C(=O)N[C@@H](Cc1ccccc1)C(=O)N[C@@H](CCCCN)C(N)=O)[C@@H](C)CC [FLFSLIPKAIGGLISAFK]
MIC [6]: > 66.6 µM
MIC [7]: 3 µM (≈ 5.76 µg/mL)
MIC [8]: 4.16 µM (≈ 8 µg/mL)
MIC [9]: 5 µM (≈ 9.61 µg/mL)
MIC [10]: 4.16 µM (≈ 8 µg/mL)
MIC [11]: 5 µM (≈ 9.61 µg/mL)
MIC [12]: ≥ 33.3 µM
MIC [13]: 8.32 µM (≈ 16 µg/mL)
MIC [14]: 2.08 µM (≈ 4 µg/mL)

MIC [15]: 18.1 µM (≈ 25 µg/mL)
MIC [16]: 36.2 µM (≈ 50 µg/mL)
MIC [17]: 36.2 µM (≈ 50 µg/mL)
MIC [18]: 18.1 µM (≈ 25 µg/mL)
MIC [19]: ≥ 36.2 µM
MIC [20]: 18.1 µM (≈ 25 µg/mL)
MIC [21]: 145 µM (≈ 200 µg/mL)
MIC [22]: 145 µM (≈ 200 µg/mL)
MIC [23]: 9.04 µM (≈ 12.5 µg/mL)
Compound: CC(C)C[C@H](NC(=O)[C@H](Cc1c[nH]c2ccccc12)NC(=O)CNC(=O)[C@H](CC(C)C)NC(=O)[C@@H](N)Cc1ccccc1)C(=O)N[C@@H](Cc1ccccc1)C(=O)N[C@@H](CCCCN)C(=O)N[C@@H](Cc1c[nH]c2ccccc12)C(=O)N[C@@H](C)C(=O)N[C@@H](CO)C(=O)N[C@@H](CCCCN)C(N)=O [FLGWLFKWASK]

MIC [17]: 55 µM (≈ 139 µg/mL)
MIC [24]: ≥ 40 µM
Compound: CC[C@H](C)[C@@H]1NC(=O)[C@H](C)NC(=O)[C@@H](NC(=O)[C@H](Cc2ccccc2)NC(=O)[C@@H](NC(=O)[C@H](CCCCN)NC(=O)[C@@H]2CCCN2C(=O)[C@H](CC(C)C)NC(=O)[C@H](Cc2ccccc2)NC(=O)[C@H](CCC(N)=O)NC(=O)CNC(=O)[C@H](C)NC(=O)[C@H](C)NC(=O)CNC(=O)[C@@H](NC(=O)[C@@H](NC(=O)[C@H](C)NC(=O)[C@@H]2CCCN2C(=O)[C@H](CC(C)C)NC(=O)[C@@H](N)Cc2ccccc2)[C@@H](C)CC)C(C)C)[C@@H](C)CC)CSSC[C@@H](C(=O)O)NC(=O)[C@H](CCCCN)NC(=O)[C@H](CCCCN)NC(=O)[C@H](CO)NC1=O [FLPAIVGAAGQFLPKIFCAISKKC]

MIC [25]: > 50 µM
MIC [26]: ≥ 100 µM
MIC [27]: ≥ 50 µM
MIC [24]: ≥ 100 µM
Compound: CC[C@H](C)[C@H](NC(=O)CN)C(=O)N[C@@H](CCSC)C(=O)N[C@@H](CC(N)=O)C(=O)N[C@H](C(=O)N[C@H](C(=O)N[C@@H](CCCCN)C(=O)N[C@@H](CC(=O)O)C(=O)N[C@H](C(=O)N[C@@H](C)C(=O)N[C@H](C(=O)NCC(=O)N[C@H](C(=O)N[C@@H](C)C(=O)N[C@H](C(=O)N[C@@H](Cc1cnc[nH]1)C(=O)N[C@@H](CC(C)C)C(=O)N[C@@H](CC(C)C)C(=O)N[C@@H](CC(N)=O)C(=O)N[C@@H](CCSC)C(=O)N[C@H](C(=O)N[C@@H](CCCCN)C(=O)N[C@H]1CSSC[C@@H](C(=O)O)NC(=O)CNC(=O)[C@H]([C@@H](C)O)NC(=O)[C@H]([C@@H](C)CC)NC(=O)[C@H](CCCCN)NC1=O)C(C)C)[C@@H](C)O)C(C)C)[C@@H](C)O)C(C)C)C(C)C)[C@@H](C)O [GIMNTVKDVATGVATHLLNMVKCKITGC]

MIC [28]: 6.81 µM (≈ 12.5 µg/mL)
MIC [29]: 0.851 µM (≈ 1.56 µg/mL)
MIC [30]: 1.71 µM (≈ 3.13 µg/mL)
Compound: CC[C@H](C)[C@H](N)C(=O)N[C@@H](CC(C)C)C(=O)N1CCC[C@H]1C(=O)N[C@@H](Cc1c[nH]c2ccccc12)C(=O)N[C@@H](CCCCN)C(=O)N[C@@H](Cc1c[nH]c2ccccc12)C(=O)N1CCC[C@H]1C(=O)N[C@@H](CC(C)C)C(=O)N[C@@H](Cc1c[nH]c2ccccc12)C(=O)N1CCC[C@H]1C(=O)N[C@@H](Cc1c[nH]c2ccccc12)C(=O)N[C@@H](CCCN=C(N)N)C(=O)N[C@@H](CCCN=C(N)N)C(N)=O [ILPWKWPLWPWRR]

MIC [28]: 28.2 µM (≈ 50 µg/mL)
MIC [29]: 3.52 µM (≈ 6.25 µg/mL)
MIC [30]: 1.76 µM (≈ 3.13 µg/mL)
Compound: CC[C@H](C)[C@H](N)C(=O)N[C@@H](CC(C)C)C(=O)N1CCC[C@H]1C(=O)N[C@@H](Cc1c[nH]c2ccccc12)C(=O)N[C@@H](CCCCN)C(=O)N[C@@H](Cc1c[nH]c2ccccc12)C(=O)N1CCC[C@H]1C(=O)N[C@@H](Cc1c[nH]c2ccccc12)C(=O)N[C@@H](CC(C)C)C(=O)N1CCC[C@H]1C(=O)N[C@@H](CCCCN)C(=O)N[C@@H](CCCN=C(N)N)C(=O)N[C@@H](CCCN=C(N)N)C(N)=O [ILPWKWPWLPKRR]

MIC [28]: 13.6 µM (≈ 25 µg/mL)
MIC [29]: 1.71 µM (≈ 3.13 µg/mL)
MIC [30]: 1.71 µM (≈ 3.13 µg/mL)
Compound: CC[C@H](C)[C@H](N)C(=O)N[C@@H](CC(C)C)C(=O)N1CCC[C@H]1C(=O)N[C@@H](Cc1c[nH]c2ccccc12)C(=O)N[C@@H](CCCCN)C(=O)N[C@@H](Cc1c[nH]c2ccccc12)C(=O)N1CCC[C@H]1C(=O)N[C@@H](Cc1c[nH]c2ccccc12)C(=O)N[C@@H](Cc1c[nH]c2ccccc12)C(=O)N1CCC[C@H]1C(=O)N[C@@H](CC(C)C)C(=O)N[C@@H](CCCN=C(N)N)C(=O)N[C@@H](CCCN=C(N)N)C(N)=O [ILPWKWPWWPLRR]

MIC [15]: ≥ 130 µM
MIC [16]: 130 µM (≈ 205 µg/mL)
MIC [17]: 130 µM (≈ 205 µg/mL)
MIC [18]: ≥ 130 µM
MIC [19]: ≥ 130 µM
MIC [20]: ≥ 130 µM
MIC [21]: 130 µM (≈ 205 µg/mL)
MIC [22]: 130 µM (≈ 205 µg/mL)
Compound: CC(=O)N[C@@H](CCCCN)C(=O)N[C@@H](C)C(=O)N[C@@H](C)C(=O)N[C@@H](CCCCN)C(=O)N[C@@H](C)C(=O)N[C@@H](C)C(=O)N[C@@H](CCCCN)C(=O)N[C@@H](CCCCN)C(=O)N[C@@H](C)C(=O)N[C@@H](C)C(=O)N[C@@H](CCCCN)C(=O)N[C@@H](C)C(=O)N[C@@H](C)C(=O)N[C@@H](Cc1c[nH]c2ccccc12)C(=O)N[C@@H](CCCCN)C(N)=O [KAAKAAKKAAKAAWK]

MIC [24]: ≥ 250 µM
Compound: CC[C@H](C)[C@H](NC(=O)[C@H](CCCCN)NC(=O)CNC(=O)[C@H](Cc1ccccc1)NC(=O)[C@H](CC(C)C)NC(=O)[C@@H](N)CC(C)C)C(=O)N[C@H](C(=O)N[C@@H](CO)C(=O)N[C@@H](CCCN=C(N)N)C(=O)N[C@@H](CC(C)C)C(=O)N[C@@H](CC(C)C)C(=O)NCC(=O)N[C@@H](CC(N)=O)C(=O)O)[C@@H](C)CC [LLFGKIISRLLGN]
